The results in this text go back to US9162992B2, “Compounds and compositions for treatment of breathing control disorders or diseases” (GALLEON PHARMACEUTICALS, INC., priority 2010, dated 2015).

The subject of the data set is hypercapnic ventilatory response. Description: Hypercapnic ventilatory response (HCVR, 3% CO2), rat plethysmography. The following applies: for hypercapnia ventilatory response (HCVR): 3% CO2. It counts as in vivo. How it is done: A 1.5 mg/mL stock was created to give an infusion dose of 0.10 mg/kg/min. A separate 0.45 mg/mL stock was created to give an infusion dose of 0.03 mg/kg/min. All compound solutions and vehicles were titrated to have a pH between 4-8, using a pH paper and titrating with NaOH or HCl solution.
Male Sprague-Dawley rats (Harlan, Inc.), 250-350 g at time of dosing, had been surgically prepared by Harlan to contain jugular vein cannulas. A 12 chamber plethysmography system with temperature/humidity compensation (Epstein et al., 1980, J. Apply Physiol. 49:1107-1115) from Buxco, Inc. (PLY 3223; Buxco, Inc, Wilmington, N.C., USA) using Biosystem XA software, v2.11.1 and a customized 12 site automated infusion system (Harvard Apparatus, Instech, Inc). Gas mixer (CWE Inc.) was used for this experiment to give concentrations of hypercapnia (3% CO2, 21% O2, balance nitrogen). Three tanks containing 100% O2, CO2, and nitrogen were attached to the gas mixer, with the customized gas mixture fed to each plethysmograph at a rate of 2 L/min.
Rat whole body plethysmography was used to evaluate and quantify minute ventilation and the pattern of breathing. A respiratory waveform was generated from the exchange of air between the animal and the chamber. This exchange induced changes in air volume that were measured with a pressure transducer, constituting the respiratory waveform (Lomask M., 2005, “Respiration measurement in the whole body plethysmography,” Buxco Inc., retrieved from http://www dot buxco dot com/downloads/LomaskWBP dot pdf). Atmospheric temperature and humidity were also measured using temperature and humidity probes that sampled chamber conditions. A compensation factor was then determined and applied to the respiratory waveform using a standardized algorithm (Epstein et al., 1980, J. Apply Physiol. 49:1107-1115) to compensate for respiratory conditioning, which was reported as the parameter COMP.
All animals were acclimated to plethysmography chambers for at least 1 hour, or until animals were no longer restless (up to 2 hours prior to data collection). Minute ventilation (MV) was calculated by the Biosystem XA software from direct measurements of tidal volume (TV) and respiratory frequency (f) using the formula MV=TV×f. Minute ventilation (mL/min) is a common endpoint for evaluating ventilatory performance. The protocol included compound (XXXVI) given as a 20 minute infusion, followed by a 20 minute exposure to 3% hypercapnia in addition to the compound (XXXVI) infusion. After 20 minutes of hypercapnia, the compound (XXXVI) infusion continued for an additional 10 minutes, resulting in a total compound (XXXVI) infusion time of 50 minutes. Each experiment included 6 animals receiving compound (XXXVI) (0.03 or 0.10 mg/kg/min) tested against 6 animals receiving vehicle, all of which were challenged with hypercapnia (3%). Animals were continuously monitored and observed for adverse behavioral effects. Such findings were recorded into laboratory notebooks for each individual animal tested.
Respiratory data was collected on a breath-by-breath basis and averaged into 1 min time bins for data analysis. […] Each parameter was compared to vehicle in order to calculate percent difference, using area under the curve (AUC) and peak response values for each defined acquisition period using a customized visual basic restructure analysis macro (Lopotosky, S. Galleon Buxco Restructure tool, v5.2, 2008). All of the data analysis for the single, stand-alone studies was done using the restructure analysis macro (Lopotosky, S. Galleon Buxco Restructure tool, v5.2, 2008). All merged data analysis with both doses was performed in Graphpad Prism for MV, TV, and f only, for hypercapnia studies. Additionally, percent increase was calculated based on the cohort average immediately prior to the hypercapnic challenge to the group's peak response. For merged hypercapnia studies, t=62 to t=67 was used.

`CCCNc1nc(NCCC)nc(N(C)OC)n1.O=S(=O)(O)O` [XXXVI, N-(4,6-Bis-n-propylamino-[1,3,5]triazin-2-yl)-N,O-dimethyl-hydroxylamine hydrogen sulfate]: under “0.03 mg/kg/min (same as vehicle group), t=62 to t=67”, the “facilitation of the HCVR” value worked out at 60%. Besides, the “respiration in naive animals” value is reported as “little or no effect” (0.03 mg/kg/min IV infusion) and “stimulated respiration in naive animals” (0.10 mg/kg/min IV infusion). For the same compound, the “hypercapnia ventilatory response (HCVR)” value was “no effect” (0.03 mg/kg/min) and “augmentation of the hypercapnia ventilatory response (HCVR)” (0.10 mg/kg/min). In addition, where the note is “0.10 mg/kg/min, t=62 to t=67, on top of elevated MV due to compound alone”, the “increase in MV during the HCVR challenge” value stood at 44%. The adverse clinical observations entry (rats, doses tested) is on record as “no adverse clinical observations”.
